By IC50 is commonly meant the concentration needed to halve the response being measured.

In patent US20250353841A1 (BIOGEN MA INC., priority 2022, published 2025) one finds IC50 data, which are given here for 14 molecules.

The test has as its system mutant Huntington (HTT) protein. In words: HTT Mutant HTRF iPSC assay (mHTT protein lowering). Conditions: human iPSC derived from a HTT patient with a poly-Q49 mutation. The format is cell-based.

Take `Cc1cn2nc(-c3cc(F)c4nc(C5CCNCC5)oc4c3)cc(C)c2n1` [Compound 154, 6-(2,8-dimethylimidazo[1,2-b]pyridazin-6-yl)-4-fluoro-2-(4-piperidyl)-1,3-benzoxazole]: the IC50 was less than 100 nM.
On to `Cc1cn2nc(-c3cc(F)c4nc(NC(=O)[C@H]5CN[C@@H]5C)cn4c3)cc(C)c2n1` (stereo in doubt) [Compound 286, rel-(2R,3S)-N-(6-(2,8-dimethylimidazo[1,2-b]pyridazin-6-yl)-8-fluoroimidazo[1,2-a]pyridin-2-yl)-2-methylazetidine-3-carboxamide], for which the concentration for half-maximal inhibition (IC50) was less than 100 nM.
`Cc1cn2nc(-c3cc(F)c4nc(NC(=O)[C@H]5C[C@@H](N(C)C)C5)cn4c3)cc(C)c2n1` [Compound 289, (1s,3s)-3-(dimethylamino)-N-(6-(2,8-dimethylimidazo[1,2-b]pyridazin-6-yl)-8-fluoroimidazo[1,2-a]pyridin-2-yl)cyclobutane-1-carboxamide] yielded an IC50 of less than 100 nM.
On to `Cc1cn2nc(-c3cc(F)c4nc(C5CCN(C)CC5)cn4c3)cc2c(C)n1` [Compound 220, 2-(8-fluoro-2-(1-methylpiperidin-4-yl)imidazo[1,2-a]pyridin-6-yl)-4,6-dimethylpyrazolo[1,5-a]pyrazine], for which the IC50 was less than 100 nM.
For `Cc1cn2nc(-c3cc(F)c4nn(C5CCNCC5)cc4c3)cc(C(F)F)c2n1` [Compound 350, 8-(difluoromethyl)-6-[7-fluoro-2-(4-piperidyl)indazol-5-yl]-2-methyl-imidazo[1,2-b]pyridazine] the value was less than 100 nM; for `CNCCc1cn2cc(-c3ccc4nn(C)cc4c3)cc(F)c2n1` [Compound 22, 2-(8-fluoro-6-(2-methyl-2H-indazol-5-yl)imidazo[1,2-a]pyridin-2-yl)-N-methylethan-1-amine], 1000 to 9000 nM.
The molecule `CNC12CC(c3cn4cc(-c5cc(C)c6nc(C)cn6n5)cc(F)c4n3)(C1)C2` [Compound 100, 3-(6-(2,8-dimethylimidazo[1,2-b]pyridazin-6-yl)-8-fluoroimidazo[1,2-a]pyridin-2-yl)-N-methylbicyclo[1.1.1] pentan-1-amine] had a half-inhibitory concentration (IC50) of less than 100 nM.
To `Cc1cn2nc(-c3cc(F)c4nc(N(C)C5CCNC(C)(C)C5)oc4c3)cc(C)c2n1` (single isomer, unassigned) [Compound 509] belongs 100 to 1000 nM.
Turning to `Cc1cn2nc(-c3cc(F)c4nc(N(C)C5CCN(C)C(C)C5)oc4c3)cc(C)c2n1` (centres unmarked) [Compound 473, 6-(2,8-dimethylimidazo[1,2-b]pyridazin-6-yl)-N-(1,2-dimethylpiperidin-4-yl)-4-fluoro-N-methylbenzo[d]oxazol-2-amine], the IC50 is 100 to 1000 nM.
Turning to `Cc1cn2nc(-c3cc(F)c4nc(NC(=O)C56CCCN(CC5)C6)cn4c3)cc(C)c2n1` (racemic) [Compound 279], the half-inhibitory concentration (IC50) is less than 100 nM.
For `Cc1cn2nc(-c3cc(F)c4[nH]c(C5CCN(C6CCCC6)CC5)nc4c3)cc(C)c2n1` [Compound 427, 6-(2-(1-cyclopentylpiperidin-4-yl)-7-fluoro-1H-benzo[d]imidazol-5-yl)-2,8-dimethylimidazo[1,2-b]pyridazine] the value was less than 100 nM; for `Cc1cn2nc(-c3cc(F)c4nc(C5CCN(C(C)C)CC5)cn4c3)cc(C)c2n1` [Compound 47, 6-(8-fluoro-2-(1-isopropylpiperidin-4-yl)imidazo[1,2-a]pyridin-6-yl)-2,8-dimethylimidazo[1,2-b]pyridazine], less than 100 nM.
Regarding `CCc1nc(C)cn2cc(-c3cc(F)c4nc(C5CCNCC5)cn4c3)cc12` [Compound 30, 6-(1-ethyl-3-methylpyrrolo[1,2-a]pyrazin-7-yl)-8-fluoro-2-(piperidin-4-yl)imidazo[1,2-a]pyridine], the 50% inhibitory concentration (IC50) was less than 100 nM.
For `Cc1cn2nc(-c3cc(F)c4[nH]c(C5CCNC(C)C5)nc4c3)cc(C)c2n1` (centres unmarked) [Compound 418, 6-(7-fluoro-2-(2-methylpiperidin-4-yl)-1H-benzo[d]imidazol-5-yl)-2,8-dimethylimidazo[1,2-b]pyridazine] the value was 100 to 1000 nM.
